Assays:
[1] = Clinical trials of Compound 1: resistance and tolerability; format: in vivo, human
Description: Compound 1, is also known as “sofosbuvir” or “SOF”.

[2] = healthy volunteers, cited from earlier work

SMILES	tolerability [1]	increases in Compound 1 exposure from co-administration ([2]; co-administration with GS-5885, GS-9669, and GS-5885+GS-9669)	exposure on concurrent administration of Compound 1 [2]
CC(C)OC(=O)[C@H](C)N[P@](=O)(OC[C@H]1O[C@@H](n2ccc(=O)[nH]c2=O)[C@](C)(F)[C@@H]1O)Oc1ccccc1 [Compound 1, (S)-isopropyl2-(((S)-(((2R,3R,4R,5R)-5-(2,4-dioxo-3,4-dihydrophyrimidin-1(2H)-yl)-4-fluoro-3-hydroxy-4-methyltetrahydrofuran-2-yl)methoxy)(phenoxy)phosphoryl)amino)propanoate]	well-tolerated	not clinically significant	–
COC(=O)N[C@H](C(=O)N1CC2(CC2)C[C@H]1c1ncc(-c2ccc3c(c2)C(F)(F)c2cc(-c4ccc5nc([C@@H]6[C@H]7CC[C@H](C7)N6C(=O)[C@@H](NC(=O)OC)C(C)C)[nH]c5c4)ccc2-3)[nH]1)C(C)C [GS-5885]	–	–	unaffected
COC[C@H]1C[C@@H](c2ncc(-c3ccc4c(c3)COc3cc5c(ccc6nc([C@@H]7CC[C@H](C)N7C(=O)[C@@H](NC(=O)OC)C(C)C)[nH]c65)cc3-4)[nH]2)N(C(=O)[C@H](NC(=O)OC)c2ccccc2)C1 [GS-9669]	–	–	unaffected

Reference: patent US20150150897A1, “METHODS OF TREATING HEPATITIS C VIRUS INFECTION IN SUBJECTS WITH CIRRHOSIS” (priority 2013, published 2015)
